The results in this text go back to patent publication US20150025120A1, “PYRAZOLE-ALCOHOL COMPOUNDS AND PHARMACEUTICAL USE THEREOF” (JAPAN TOBACCO INC., priority 2013, published 2015).

In the test the target is T1, human PDHK1 (hPDHK1) (Homo sapiens, UniProt Q15118).
T1 construct: made in house; host or cells: Escherichia coli BL21(DE3), pET17b
Description: Inhibitory action of PDHK1 activity in vitro (residual PDH activity after kinase reaction). It counts as biochemical. As for the experimental part:
The inhibitory action of PDHK activity was assessed indirectly by measuring the residual PDH activity after kinase reaction in the presence of a test compound.
In the case of human PDHK1 (hPDHK1, Genbank Accession No. L42450.1), a 1.3 kbp fragment encoding this protein was isolated from human liver cDNA by polymerase chain reaction (PCR). Modified hPDHK1 cDNA wherein FLAG-Tag sequence was added to the N terminus was prepared by PCR and cloned into a vector (pET17b-Novagen). The recombinant construct was transformed into Escherichia coli (DH5α-TOYOBO). The recombinant clones were identified, and plasmid DNA was isolated and subjected to the DNA sequence analysis. One clone which had the expected nucleic acid sequence was selected for expression work. […]
Then, 10 μL of substrates (5 mmol/L sodium pyruvate, 5 mmol/L Coenzyme A, 12 mmol/L NAD, 5 mmol/L thiamin pyrophosphate, diluted with buffer) were added. The mixture was incubated at room temperature for 90 min, and the residual PDH activity was measured.
The absorbance at 340 nm before and after PDH reaction was measured using a microplate reader to detect NADH produced by the PDH reaction. The hPDHK1 inhibition rate (%) of the test compound was calculated from the formula [{(PDH activity of the test compound−PDH activity of control)/PDH activity of blank−PDH activity of control)}× 100].

T1 sequence (Q15118 29-436): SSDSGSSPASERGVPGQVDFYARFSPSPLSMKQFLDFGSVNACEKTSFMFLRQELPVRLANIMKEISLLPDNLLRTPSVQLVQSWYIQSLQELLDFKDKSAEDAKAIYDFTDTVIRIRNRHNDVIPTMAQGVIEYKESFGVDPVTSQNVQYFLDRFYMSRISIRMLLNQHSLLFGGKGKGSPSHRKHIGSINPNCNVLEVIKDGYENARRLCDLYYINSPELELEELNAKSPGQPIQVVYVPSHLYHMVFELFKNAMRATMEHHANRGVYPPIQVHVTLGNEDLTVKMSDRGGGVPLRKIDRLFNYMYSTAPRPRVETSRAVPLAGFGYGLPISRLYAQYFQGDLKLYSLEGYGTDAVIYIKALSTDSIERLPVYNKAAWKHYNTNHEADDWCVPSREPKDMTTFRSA

In general, IC50 refers to the point on the concentration scale where inhibition reaches its midpoint. High values mean weaker potency, low ones greater potency. In turn, `CC(C)(O)COc1cc(-c2cnn(CC(C)(C)O)c2)c2c(c1)[C@@](O)(C(F)(F)F)c1ccccc1-2` [compound (2), (9R)-2-(2-hydroxy-2-methylpropoxy)-4-[1-(2-hydroxy-2-methylpropyl)-1H-pyrazol-4-yl]-9-(trifluoromethyl)-9H-fluoren-9-ol] gave an IC50 of 34 nM.
`C[C@H](O)COc1cc(-c2cnn(CC(C)(C)O)c2)c2c(c1)[C@@](O)(C(F)(F)F)c1ccccc1-2` [compound (1), (9R)-4-[1-(2-hydroxy-2-methylpropyl)-1H-pyrazol-4-yl]-2-((2S)-2-hydroxypropoxy)-9-(trifluoromethyl)-9H-fluoren-9-ol] had an IC50 of 28 nM.
